The supplement of paper PMC8882468
± gives the standard deviation of the averaged measurements.

Tests used:
Test in all cases: CTG-3D luminescence at 96 h relative to day-0 seeding control (ratio to day 0); higher = more growth / less cytotoxicity; PDxO 3D drug screen (set 2), 96 h, CTG-3D normalised to day-0 seeding control.
HCI-001 = system: HCI-001 (organoid from a triple-negative breast cancer xenograft)
HCI-002 = system: HCI-002 (organoid from a triple-negative breast cancer xenograft)
HCI-005.E2 = system: HCI-005.E2 (organoid from a breast cancer xenograft with a HER2-positive history)
HCI-008 = system: HCI-008 (organoid from a HER2-enriched breast cancer xenograft)
HCI-015 = system: HCI-015 (organoid from a triple-negative breast cancer xenograft)
HCI-025 = system: HCI-025 (organoid from a breast cancer xenograft)

CO[C@H]1C[C@@H]2CC[C@@H](C)[C@@](O)(O2)C(=O)C(=O)N2CCCC[C@H]2C(=O)O[C@H]([C@H](C)C[C@@H]2CC[C@@H](OCCO)[C@H](OC)C2)CC(=O)[C@H](C)/C=C(\C)[C@@H](O)[C@@H](OC)C(=O)[C@H](C)C[C@H](C)/C=C/C=C/C=C/1C [everolimus]
CTG-3D luminescence at 96 h
Settings | 12.5 pM | 0.00025 µM | 0.005 µM | 0.1 µM | 1 µM | 10 µM | 100 µM | 625 fM
HCI-001, days in culture: 365 | 1.99 | 1.3 | 1.52 | 1.53 | 1.65 | 1.34 | 0.0033 | 1.24
HCI-001, days in culture: 397 | 1.23 | 1.76 | 1.92 | 1.59 | 1.16 | 1.33 | -0.000266 | 0.913
HCI-001, days in culture: 401 | 1.21 | 1.26 | 1.27 | 1.07 | 1.1 | 1.27 | -0.00223 | 1.41
HCI-002, days in culture: 127 | 1.87 | 2.27 | 2.16 | 2.43 | 2.17 | 2.2 | -0.00603 | 2.25
HCI-002, days in culture: 155 | 3.94 | 3.58 | 4.06 | 4.09 | 2.96 | 2.78 | -0.00382 | 3.53
HCI-002, days in culture: 168 | 3.61 | 3.15 | 3.32 | 2.37 | 2.67 | 2.73 | -0.000729 | 3.88
HCI-008, days in culture: 325 | 0.998 | 1.62 | 1.03 | 2.85 | 2.2 | 1.15 | -0.00335 | 1.28
HCI-008, days in culture: 340 | 1.1 | 1.26 | 1.65 | 0.457 | 1.04 | – | -0.000653 | 1.09
HCI-008, days in culture: 354 | 1.49 | 0.714 | 2.05 | 0.859 | 0.973 | 0.697 | -0.00248 | 0.841
HCI-008, days in culture: 382 | 1.54 | 1.42 | 1.04 | 1.1 | 0.451 | 0.406 | -0.000828 | 1.26
HCI-015, days in culture: 333 | 1.5 | 1.05 | 0.891 | 0.744 | 0.932 | 0.782 | 0.00101 | 1.51
HCI-015, days in culture: 355 | 2.02 | 1.85 | 1.47 | 1.79 | 0.526 | 0.358 | -0.00285 | 1.7
HCI-015, days in culture: 369 | 1.97 | 1.19 | 1.91 | 1.52 | 1.84 | 1.12 | -0.00186 | 1.61
HCI-025, days in culture: 175 | 1.08 | 0.994 | 0.949 | 1.13 | 1.44 | 1.35 | 0.00118 | 1.41
HCI-025, days in culture: 189 | 1.44 | 1.22 | 1.34 | 1.21 | 0.974 | 0.917 | 0.000135 | 2.02
HCI-025, days in culture: 212 | 1.18 | 2.27 | 2.08 | 0.487 | 0.322 | 0.167 | -0.000795 | 1.43
HCI-025, days in culture: 224 | 1.8 | 2.05 | 1.58 | 0.608 | 0.581 | 0.366 | -0.00196 | 1.74

HCI-005.E2
Settings | CTG-3D luminescence at 96 h
12.5 pM | 1.05 ± 0.22
0.00025 µM | 1.43 ± 0.12
0.005 µM | 1.45 ± 0.27
0.1 µM | 1.18 ± 0.37
1 µM | 0.769 ± 0.26
10 µM | 0.653 ± 0.13
100 µM | -0.000603 ± 0.0017
625 fM | 1.6 ± 0.55

CS(=O)(=O)CCNCc1ccc(-c2ccc3ncnc(Nc4ccc(OCc5cccc(F)c5)c(Cl)c4)c3c2)o1 [lapatinib]
CTG-3D luminescence at 96 h
Settings | 12.5 pM | 0.00025 µM | 0.005 µM | 0.1 µM | 1 µM | 10 µM | 100 µM | 625 fM
HCI-001, days in culture: 365 | 2.34 | 2.26 | 2.24 | 2.56 | 1.9 | 1.3 | 0.109 | 1.46
HCI-001, days in culture: 397 | 1.64 | 2.11 | 2.14 | 1.37 | 1.64 | 1.63 | 0.127 | 1.29
HCI-001, days in culture: 401 | 1.46 | 1.83 | 1.73 | 1.59 | 1.25 | 1.44 | 0.0402 | 1.52
HCI-002, days in culture: 127 | 2.38 | 2.9 | 2.7 | 3.41 | 2.39 | 1.07 | 0.00596 | 2.75
HCI-002, days in culture: 155 | 5.69 | 4.91 | 5.49 | 7.04 | 4.12 | 0.801 | -0.00284 | 4.59
HCI-002, days in culture: 168 | 3.63 | 3.77 | 3.93 | 3.54 | 3.53 | 1.01 | -0.0013 | 3.8
HCI-008, days in culture: 325 | 1.68 | 1.81 | 1.73 | 3.2 | 2.32 | 0.898 | 0.0242 | 1.5
HCI-008, days in culture: 340 | 1.22 | 2.1 | 1.96 | 1.35 | 2.47 | – | 0.0374 | 1.39
HCI-008, days in culture: 354 | 1.62 | 1.04 | 2.27 | 1.42 | 1.52 | 0.935 | 0.00653 | 1.13
HCI-008, days in culture: 382 | 1.61 | 1.47 | 1.81 | 1.52 | 1.25 | 0.425 | 0.00105 | 1.22
HCI-015, days in culture: 333 | 1.35 | 1.46 | 1.34 | 1.08 | 0.661 | 0.251 | 0.00814 | 2.63
HCI-015, days in culture: 355 | 3.61 | 3.24 | 1.08 | 1.64 | 1.45 | 0.567 | 0.0071 | 2.45
HCI-015, days in culture: 369 | 2.34 | 1.5 | 2.2 | 1.6 | 2.32 | 0.511 | 0.0242 | 1.79
HCI-025, days in culture: 175 | 1.92 | 2.05 | 1.45 | 2.22 | 2.73 | 1.66 | 0.00817 | 1.88
HCI-025, days in culture: 189 | 1.99 | 2.19 | 1.58 | 3.08 | 1.26 | 0.872 | 0.00432 | 2.46
HCI-025, days in culture: 212 | 1.59 | 3.22 | 4.13 | 3.86 | 1.17 | 0.527 | 0.00417 | 1.69
HCI-025, days in culture: 224 | 2.14 | 1.93 | 1.8 | 1.82 | 1.84 | 0.896 | 0.000609 | 1.83

HCI-005.E2
Settings | CTG-3D luminescence at 96 h
12.5 pM | 1.84 ± 0.73
0.00025 µM | 2.04 ± 0.56
0.005 µM | 2.54 ± 0.79
0.1 µM | 2.55 ± 1.2
1 µM | 2.58 ± 0.58
10 µM | 0.551 ± 0.064
100 µM | 0.00117 ± 0.0028
625 fM | 2.11 ± 0.61

O=C(c1cc(Cc2n[nH]c(=O)c3ccccc23)ccc1F)N1CCN(C(=O)C2CC2)CC1 [olaparib]
CTG-3D luminescence at 96 h
Settings | 12.5 pM | 0.00025 µM | 0.005 µM | 0.1 µM | 1 µM | 10 µM | 100 µM | 625 fM
HCI-001, days in culture: 365 | 2.29 | 1.96 | 2.13 | 2.28 | 2.05 | 2.04 | 1.96 | 1.74
HCI-001, days in culture: 397 | 1.71 | 2.02 | 2 | 1.8 | 2.31 | 2.16 | 1.24 | 1.26
HCI-001, days in culture: 401 | 1.69 | 1.42 | 1.54 | 1.68 | 1.23 | 1.73 | 1.26 | 1.62
HCI-002, days in culture: 127 | 2.26 | 2.88 | 2.92 | 2.97 | 2.45 | 2.59 | 2.23 | 2.54
HCI-002, days in culture: 155 | 4.7 | 4.7 | 5.6 | 6.16 | 4.47 | 2.8 | 2.34 | 4.33
HCI-002, days in culture: 168 | 3.4 | 3.26 | 4.03 | 3.35 | 3.14 | 2.04 | 1.7 | 3.55
HCI-008, days in culture: 325 | 1.39 | 1.88 | 1.46 | 3.33 | 2.71 | 1.99 | 0.484 | 1.65
HCI-008, days in culture: 340 | 1.45 | 2.1 | 1.84 | 1.46 | 1.67 | – | 0.958 | 1.34
HCI-008, days in culture: 354 | 1.36 | 1 | 1.35 | 1.2 | 1.22 | 1.33 | 0.836 | 1.44
HCI-008, days in culture: 382 | 1.49 | 1.46 | 1.23 | 2 | 0.89 | 0.955 | 0.204 | 1.8
HCI-015, days in culture: 333 | 1.88 | 1.11 | 1.59 | 1.95 | 0.972 | 0.511 | 0.241 | 1.03
HCI-015, days in culture: 355 | 2.43 | 3.28 | 1.71 | 1.6 | 0.993 | 0.516 | 0.951 | 2.1
HCI-015, days in culture: 369 | 2.43 | 1.41 | 2.36 | 1.91 | 1.9 | 1.05 | 1.24 | 2.02
HCI-025, days in culture: 175 | 1.97 | 2.33 | 1.9 | 1.95 | 3.08 | 2.2 | 0.866 | 2.02
HCI-025, days in culture: 189 | 1.46 | 2.11 | 1.91 | 2.25 | 1.86 | 1.28 | 0.825 | 2.78
HCI-025, days in culture: 212 | 3.74 | 3.65 | 1.79 | 1.22 | 1.32 | 1.72 | 0.66 | 2
HCI-025, days in culture: 224 | 1.96 | 1.72 | 1.81 | 1.9 | 2.05 | 1.41 | 0.478 | 1.81

HCI-005.E2
Settings | CTG-3D luminescence at 96 h
12.5 pM | 1.62 ± 0.31
0.00025 µM | 2.3 ± 0.1
0.005 µM | 2.07 ± 0.48
0.1 µM | 2.39 ± 0.73
1 µM | 2.1 ± 0.81
10 µM | 1.27 ± 0.27
100 µM | 0.485 ± 0.14
625 fM | 2.24 ± 0.56
